In US8288418B2, “Benzimidazole derivatives and their use for modulating the GABAA receptor complex” (Neurosearch A/S, priority 2006, dated 2012) one finds IC50 and melting point data, which are given here for nine compounds.

Data set [1] addresses GABAA receptor complex, benzodiazepine modulatory unit (cerebral cortex membranes). In words: In vitro inhibition of 3H-flunitrazepam (3H-FNM) binding. Also on record: species or system rat. The note with it: inhibition of specific binding of 3H-FNM (1 nM), cerebral cortex membranes of male Wistar rats, 40 min at 2° C. The procedure: In vitro Inhibition of ^3H-flunitrazepam (^3H-FNM) Binding
The GABA recognition site and the benzodiazepine modulatory unit can selectively be labelled with ^3H-flunitrazepam.
Preparations are performed at 0-4° C. unless otherwise indicated. Cerebral cortex from male Wistar rats (150-200 g) is homogenised for 5-10 sec in 20 ml Tris-HCl (30 mM, pH 7.4) using an Ultra-Turrax homogeniser. The suspension is centrifuged at 27,000×g for 15 min and the pellet is washed three times with buffer (centrifuged at 27,000×g for 10 min). The washed pellet is homogenized in 20 ml of buffer and incubated on a water bath (37° C.) for 30 min to remove endogenous GABA and then centrifuged for 10 min at 27,000×g. The pellet is then homogenized in buffer and centrifuged for 10 min at 27,000×g. The final pellet is resuspended in 30 ml buffer and the preparation is frozen and stored at −20° C.
The membrane preparation is thawed and centrifuged at 2° C. for 10 min at 27,000×g. The pellet is washed twice with 20 ml 50 mM Tris-citrate, pH 7.1 using an Ultra-Turrax homogeniser and centrifuged for 10 min at 27,000×g. The final pellet is resuspended in 50 mM Tris-citrate, pH 7.1 (500 ml buffer per g of original tissue), and then used for binding assays. Aliquots of 0.5 ml tissue are added to 25 μl of test solution and 25 μl of ^3H-FNM (1 nM, final concentration), mixed and incubated for 40 min at 2° C. Non-specific binding is determined using Clonazepam (1 μM, final concentration). After incubation the samples are added 5 ml of ice-cold buffer and poured directly onto Whatman GF/C glass fibre filters under suction and immediately washed with 5 ml ice-cold buffer. The amount of radioactivity on the filters is determined by conventional liquid scintillation counting. Specific binding is total binding minus non-specific binding.
25-75% inhibition of specific binding must be obtained, before calculation of an IC50.
The test value will be given as IC50 (the concentration (μM) of the test substance which inhibits the specific binding of ^3H-FNM by 50%).
Co is specific binding in control assays, and
Cx is the specific binding in the test assay.
(The calculations assume normal mass-action kinetics).

Regarding `COc1cc(F)ccc1-c1cccc(-n2cnc3cc(C(F)(F)F)ccc32)c1` [Compound 9a, 1-(4′-Fluoro-2′-methoxy-biphenyl-3-yl)-5-trifluoromethyl-1H-benzoimidazole], the melting point (commonly the temperature, or range, at which the solid turns liquid) came to 95.5 °C. The IC50 (usually the concentration needed to halve the response being measured) in data set [1] was determined as 1.4 nM.
As for `CC(C)(O)c1ccc2c(c1)ncn2-c1cccc(-c2ccccc2C#N)c1` [Compound 9aac, 3′-[5-(1-Hydroxy-1-methyl-ethyl)-benzoimidazol-1-yl]-biphenyl-2-carbonitrile], in data set [1], the concentration for half-maximal inhibition (IC50) was 0.65 nM.
Take `C[C@@H](O)c1ccc2c(c1)ncn2-c1cccc(-c2cccnc2F)c1` [Compound 9aba, (R)-1-{1-[3-(2-Fluoro-pyridin-3-yl)-phenyl]-1H-benzoimidazol-5-yl}-ethanol]: the IC50 in data set [1] is 6.2 nM.
Compound `CC(C)(O)c1ccc2c(c1)ncn2-c1cccc(-c2cccnc2F)c1` [Compound 9ada, 2-{1-[3-(2-Fluoro-pyridin-3-yl)-phenyl]-1H-benzoimidazol-5-yl}-propan-2-ol] gave a concentration for half-maximal inhibition (IC50) in data set [1] of 4 nM.
The same measure, in the same setting: the value for `COc1ccccc1-c1cccc(-n2cnc3cc(-c4cc[nH]n4)ccc32)c1` [Compound 9ak, 5-(1H-3-Pyrazolyl)-1-(2′-methoxy-biphenyl-3-yl)-1H-benzoimidazole] was 21 nM; that for `N=C(NO)c1ccc2c(c1)ncn2-c1cccc(-c2ccccc2Cl)c1` [Compound 12ha, 1-(2′-Chloro-biphenyl-3-yl)-N-hydroxy-1H-benzoimidazole-5-carboxamidine] was 0.95 nM.
For the compound `CC(=NO)c1ccc2c(c1)ncn2-c1cccc(-c2cccnc2O)c1` [Compound 15, 1-{1-[3-(2-Hydroxy-pyridin-3-yl)-phenyl]-1H-benzoimidazol-5-yl}-ethanone oxime], the melting point is 220 to 223 °C.
Take `CC(O)c1ccc2c(c1)ncn2-c1cccc(-c2cccnc2O)c1` (stereo not shown) [Compound 16, 3-{3-[5-(1-Hydroxy-ethyl)-benzoimidazol-1-yl]-phenyl}-pyridin-2-ol]: the melting point was 133 to 137 °C.
The same measure, in the same setting: the value for `CC(C)OC(=O)c1ccc2c(c1)ncn2-c1cccc(-c2cccnc2Cl)c1` [Compound 19, 1-[3-(2-Chloro-pyridin-3-yl)-phenyl]-1H-benzoimidazole-5-carboxylic acid isopropyl ester] was 147 to 150 °C.
